Laboratory results published in ChEMBL document CHEMBL1201862, “PubChem BioAssay data set” (2004).
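In this assay, cells in 96-well plates receive the compound at five concentrations for 48 hours. Endpoints are linearly interpolated between the surrounding concentrations. GI50 = concentration required for 50% inhibition of growth.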 Activity calls are given as the source filed them. Rule as the data show it: active = GI50 up to about 1.1 µM and inactive = higher.

Assays:
Test in all cases: inhibition of tumour cell growth, NCI panel, 48 h
[1] = system: CCRF-CEM
[2] = system: NCI-H460
[3] = system: SW-620
[4] = system: HL-60
[5] = system: SK-OV-3
[6] = system: A549
[7] = system: Malme-3M
[8] = system: SNB-19
[9] = system: UACC-62
[10] = system: SN12C
[11] = system: OVCAR-5
[12] = system: HCC 2998
[13] = system: CAKI-1
[14] = system: DLD-1
[15] = system: PC-3
[16] = system: Hs-578T
[17] = system: NCI/ADR-RES
[18] = system: MDA-MB-231
[19] = system: HOP-92
[20] = system: DU-145

Compound | GI50 [1] | GI50 [2] | GI50 [3] | GI50 [4] | GI50 [5] | GI50 [6] | GI50 [7] | GI50 [8] | GI50 [9] | GI50 [10] | GI50 [11] | GI50 [12] | GI50 [13] | GI50 [14] | GI50 [15] | GI50 [16] | GI50 [17] | GI50 [18] | GI50 [19] | GI50 [20]
COc1ccc(O)c2c1C(=O)CCCC2=O | > 100 µM (inactive) | > 100 µM (inactive) | > 100 µM (inactive) | > 100 µM (inactive) | > 100 µM (inactive) | > 100 µM (inactive) | > 100 µM (inactive) | > 100 µM (inactive) | > 100 µM (inactive) | > 100 µM (inactive) | > 100 µM (inactive) | > 100 µM (inactive) | > 100 µM (inactive) | > 100 µM (inactive) |  |  |  |  |  | 
CCCCCCCCCCCc1c(O)c(=O)c2c(oc3c(=O)c(CCCCCCCCCCC)c(O)c(=O)c3n2-c2ccc(N(C)C)cc2)c1=O | 26 µM (inactive) | 18.6 µM (inactive) | 24 µM (inactive) | 27.1 µM (inactive) | 19.7 µM (inactive) | 23.6 µM (inactive) | 22.4 µM (inactive) | 20.8 µM (inactive) | 18 µM (inactive) | 19.2 µM (inactive) | 23.8 µM (inactive) |  | 15.7 µM (inactive) | 18.8 µM (inactive) |  |  |  |  |  | 
CC(NNC(=O)c1ccncc1)c1ccc(F)cc1 (stereo unspecified) | > 100 µM (inactive) | > 100 µM (inactive) | > 100 µM (inactive) | 80 µM (inactive) | > 100 µM (inactive) | > 100 µM (inactive) | > 100 µM (inactive) | > 100 µM (inactive) | > 100 µM (inactive) | > 100 µM (inactive) | > 100 µM (inactive) | > 100 µM (inactive) | > 100 µM (inactive) |  | > 100 µM (inactive) | > 100 µM (inactive) | > 100 µM (inactive) | > 100 µM (inactive) | > 100 µM (inactive) | > 100 µM (inactive)
C(=C\N1CCCCC1)/c1nnnn1-c1ccccc1 | 19.6 µM (inactive) | 73.8 µM (inactive) | 34.8 µM (inactive) | 15.8 µM (inactive) | 25.6 µM (inactive) | > 100 µM (inactive) | 55.5 µM (inactive) | 32.6 µM (inactive) | 15.6 µM (inactive) | 26.2 µM (inactive) | 42.1 µM (inactive) | 90.6 µM (inactive) | 12.4 µM (inactive) |  | 27.7 µM (inactive) | 17 µM (inactive) | 20.5 µM (inactive) | 20.8 µM (inactive) | 66.1 µM (inactive) | > 100 µM (inactive)
O=C1c2cc(Br)ccc2-c2ccc3c4ccc5c6c(ccc(c7ccc1c2c73)c64)C(=O)c1cc(Br)ccc1-5 | 0.787 µM (active) | > 100 µM (inactive) | > 100 µM (inactive) | 25.8 µM (inactive) | > 100 µM (inactive) | > 100 µM (inactive) | > 100 µM (inactive) | > 100 µM (inactive) | > 100 µM (inactive) | > 100 µM (inactive) | > 100 µM (inactive) | > 100 µM (inactive) | > 100 µM (inactive) |  | > 100 µM (inactive) | > 100 µM (inactive) | > 100 µM (inactive) | > 100 µM (inactive) | > 100 µM (inactive) | > 100 µM (inactive)
CCOC(=O)/C=C(\C(=O)OCC)n1cnc2c(N)ncnc21 | 1.63 µM (inactive) | 17.9 µM (inactive) | 2.74 µM (inactive) | 0.931 µM (active) | 17.7 µM (inactive) | 17.1 µM (inactive) | 4.29 µM (inactive) | 16.1 µM (inactive) | 10.7 µM (inactive) | 5.19 µM (inactive) | 5.83 µM (inactive) | 16 µM (inactive) | 1.4 µM (inactive) |  | 13.3 µM (inactive) | 19.7 µM (inactive) | 17.2 µM (inactive) | 7.31 µM (inactive) | 2.28 µM (inactive) | 15.6 µM (inactive)
Cc1ccc(-c2cn3c(nc4ccccc43)c(C)n2)cc1 | 85.3 µM (inactive) | 26.7 µM (inactive) | > 100 µM (inactive) | 26.5 µM (inactive) | 7.66 µM (inactive) | 55.1 µM (inactive) | 37.6 µM (inactive) | 66.2 µM (inactive) | 23.5 µM (inactive) | 55.6 µM (inactive) | 51.6 µM (inactive) | > 100 µM (inactive) | > 100 µM (inactive) |  | 46.6 µM (inactive) | 51.3 µM (inactive) | 40.1 µM (inactive) | > 94.6 µM (inactive) | 8.93 µM (inactive) | 46.5 µM (inactive)
O=C(O)C12C3CCCC1C2CC3 (stereo unspecified) | > 100 µM (inactive) | > 100 µM (inactive) |  | > 100 µM (inactive) | > 100 µM (inactive) | > 100 µM (inactive) | > 100 µM (inactive) | > 100 µM (inactive) | > 100 µM (inactive) | > 100 µM (inactive) | > 100 µM (inactive) |  | > 100 µM (inactive) | > 100 µM (inactive) |  |  |  |  | > 100 µM (inactive) | 
CN(C)CCCn1c(Cc2ccc(Cl)cc2)nc2cc(C(F)(F)F)ccc21 | 13 µM (inactive) | 13.2 µM (inactive) | 23.4 µM (inactive) | 29.6 µM (inactive) | 14.4 µM (inactive) | 18.2 µM (inactive) | 11 µM (inactive) | 16.5 µM (inactive) | 17.3 µM (inactive) | 15.1 µM (inactive) | 17.7 µM (inactive) | 2 µM (inactive) | 13.3 µM (inactive) |  | 15.4 µM (inactive) | 16.6 µM (inactive) | 15.7 µM (inactive) | 13.6 µM (inactive) | 9.98 µM (inactive) | 14.1 µM (inactive)
O=C(O)CCSC(CC1(c2ccc(Cl)cc2)NC(=O)CCS1)c1ccccc1 (stereo unspecified) | 1.9 µM (inactive) | 16.8 µM (inactive) | 5.12 µM (inactive) | 3.44 µM (inactive) | 20.5 µM (inactive) | 24.2 µM (inactive) | 22.9 µM (inactive) | 23.8 µM (inactive) | 19.9 µM (inactive) | 18.3 µM (inactive) | 17.9 µM (inactive) | 10 µM (inactive) | 16.9 µM (inactive) |  | 18.7 µM (inactive) | 12.9 µM (inactive) | 20.8 µM (inactive) | 22.1 µM (inactive) | 33.8 µM (inactive) | > 39.4 µM (inactive)
CCN(CC)c1ccc(/N=C2\C=C(Cl)C(=O)c3ncccc32)c(C)c1 | 1.68 µM (inactive) | 6.56 µM (inactive) | 4.05 µM (inactive) | 1.86 µM (inactive) | 31.3 µM (inactive) | 9.71 µM (inactive) | 2.88 µM (inactive) | 21.3 µM (inactive) | 3.8 µM (inactive) | 7.41 µM (inactive) |  |  | 3.33 µM (inactive) | 4.06 µM (inactive) |  |  |  |  | 2.15 µM (inactive) | 
COc1ccc(/C=C/c2sc3ccccc3[n+]2CCCCI)cc1OC | 3.49 µM (inactive) | > 10 µM (inactive) | 7.01 µM (inactive) | 4.46 µM (inactive) | > 10 µM (inactive) | > 10 µM (inactive) | 3.01 µM (inactive) | > 10 µM (inactive) | 6.32 µM (inactive) | > 10 µM (inactive) | > 10 µM (inactive) | > 10 µM (inactive) | > 10 µM (inactive) |  | 3.33 µM (inactive) | > 10 µM (inactive) | > 10 µM (inactive) | > 10 µM (inactive) | 9.53 µM (inactive) | > 10 µM (inactive)
CC(C)NC(=O)OCc1c(COC(=O)NC(C)C)c(-c2cc[n+](COC(=O)C(C)(C)C)cc2)n2c1CCC2 | > 100 µM (inactive) | > 100 µM (inactive) | > 100 µM (inactive) | > 100 µM (inactive) | > 100 µM (inactive) | > 100 µM (inactive) | > 100 µM (inactive) | > 100 µM (inactive) | > 100 µM (inactive) | > 100 µM (inactive) | > 100 µM (inactive) | > 100 µM (inactive) | 60 µM (inactive) |  | > 100 µM (inactive) | > 100 µM (inactive) | > 100 µM (inactive) | > 100 µM (inactive) | > 100 µM (inactive) | > 100 µM (inactive)
Cc1nc(-c2ccccc2)cn2c1nc1ccccc12 | > 58.7 µM (inactive) | 17.7 µM (inactive) | 27.7 µM (inactive) | 67 µM (inactive) | 6.32 µM (inactive) | 19.4 µM (inactive) | 23.9 µM (inactive) | 29.5 µM (inactive) | 14.7 µM (inactive) | 29.7 µM (inactive) | > 31.6 µM (inactive) | 51.4 µM (inactive) | 21.1 µM (inactive) |  | 24.7 µM (inactive) | 35.4 µM (inactive) | 20.9 µM (inactive) | 29.9 µM (inactive) | 21 µM (inactive) | 31.8 µM (inactive)
CN(C)c1ccc(/C=C2\N=C(c3ccccc3)N(/N=C3\C(=O)Nc4ccccc43)C2=O)cc1 | 37.2 µM (inactive) | 50.5 µM (inactive) | 65 µM (inactive) | 35.2 µM (inactive) | > 100 µM (inactive) | 74.1 µM (inactive) | 45.9 µM (inactive) | > 100 µM (inactive) | > 100 µM (inactive) | 56.9 µM (inactive) | > 100 µM (inactive) | 52.4 µM (inactive) | 35.9 µM (inactive) |  | 56.5 µM (inactive) | 38.8 µM (inactive) | 83.8 µM (inactive) | 92.5 µM (inactive) | 16.9 µM (inactive) | 61.9 µM (inactive)
N#Cc1nc(/C=C/c2cccnc2)oc1N | > 100 µM (inactive) | > 100 µM (inactive) | > 100 µM (inactive) | > 100 µM (inactive) | > 100 µM (inactive) | 28.4 µM (inactive) | > 100 µM (inactive) | > 100 µM (inactive) | > 100 µM (inactive) | > 100 µM (inactive) | > 100 µM (inactive) | > 100 µM (inactive) | > 100 µM (inactive) |  | > 100 µM (inactive) | > 100 µM (inactive) | > 100 µM (inactive) | > 100 µM (inactive) | > 100 µM (inactive) | > 100 µM (inactive)
